From ChEMBL document CHEMBL4396884, “Structure-Aided Identification and Optimization of Tetrahydro-isoquinolines as Novel PDE4 Inhibitors Leading to Discovery of an Effective Antipsoriasis Agent” (J Med Chem, 2019)
Active and inactive are the calls of the source. The rule behind the calls is not given here.

Columns and labels:
[1] = biological target: 3',5'-cyclic-AMP phosphodiesterase 4D (Homo sapiens) (UniProt Q08499); test: Inhibition of recombinant human PDE4D catalytic domain at 1 uM using [3H]cAMP as substrate measured after 30 mins by scintillation proximity assay relative to control
[2] = Permeability across apical to basal side in human Caco2 cells assessed as drug recovery measured after 95 mins by LC-MS/MS analysis; assay type: ADME, cell-based; details: Caco-2, read-out: Drug recovery
[3] = Permeability across basal to apical side in human Caco2 cells assessed as drug recovery measured after 95 mins by LC-MS/MS analysis; assay type: ADME, cell-based; details: Caco-2, read-out: Drug recovery
[4] = Apparent permeability across apical to basal side in human Caco2 cells measured after 95 mins by LC-MS/MS analysis; assay type: ADME, cell-based; details: Caco-2
[5] = Apparent permeability across basal to apical side in human Caco2 cells measured after 95 mins by LC-MS/MS analysis; assay type: ADME, cell-based; details: Caco-2
[6] = AUC (0 to t) in Sprague-Dawley rat at 10 mg/kg, iv by LC-MS/MS analysis; assay type: ADME, organism-based; details: in vivo
[7] = AUC (0 to infinity) in Sprague-Dawley rat at 10 mg/kg, iv by LC-MS/MS analysis; assay type: ADME, organism-based; parameters: dose 10 mg/kg, route intravenous, time infinity; details: in vivo
[8] = MRT in Sprague-Dawley rat at 10 mg/kg, iv by LC-MS/MS analysis; assay type: ADME, organism-based; details: in vivo
[9] = Half life in Sprague-Dawley rat at 10 mg/kg, iv by LC-MS/MS analysis; assay type: ADME, organism-based; details: in vivo
[10] = Clearance in Sprague-Dawley rat at 10 mg/kg, iv by LC-MS/MS analysis; assay type: ADME, organism-based; details: in vivo
[11] = Volume of distribution at steady state in Sprague-Dawley rat at 10 mg/kg, iv by LC-MS/MS analysis; assay type: ADME, organism-based; details: in vivo, read-out: Vdss
[12] = Tmax in Sprague-Dawley rat at 25 mg/kg, po by LC-MS/MS analysis; assay type: ADME, organism-based; details: in vivo
[13] = Cmax in Sprague-Dawley rat at 25 mg/kg, po by LC-MS/MS analysis; assay type: ADME, organism-based; parameters: dose 25 mg/kg, route oral; details: in vivo
[14] = AUC (0 to t) in Sprague-Dawley rat at 25 mg/kg, po by LC-MS/MS analysis; assay type: ADME, organism-based; details: in vivo
[15] = AUC (0 to infinity) in Sprague-Dawley rat at 25 mg/kg, po by LC-MS/MS analysis; assay type: ADME, organism-based; parameters: dose 25 mg/kg, route oral, time infinity; details: in vivo
[16] = MRT in Sprague-Dawley rat at 25 mg/kg, po by LC-MS/MS analysis; assay type: ADME, organism-based; details: in vivo
[17] = Half life in Sprague-Dawley rat at 25 mg/kg, po by LC-MS/MS analysis; assay type: ADME, organism-based; details: in vivo
Mus musculus [18] = test: Antiinflammatory activity in specific pathogen free BALB/c mouse assessed as inhibition of LPS-induced TNFalpha secretion in serum at 1 mg/kg, po administered as single dose pretreated for 1.5 hrs followed by LPS stimulation and measured after 2 hrs by ELISA; assay type: functional, organism-based
[19] = Oral bioavailability in Sprague-Dawley rat at 25 mg/kg by LC-MS/MS analysis; assay type: ADME, organism-based; details: in vivo
Mus musculus [20] = test: Antiinflammatory activity in specific pathogen free BALB/c mouse assessed as inhibition of LPS-induced IL6 secretion in serum at 1 mg/kg, po administered as single dose pretreated for 1.5 hrs followed by LPS stimulation and measured after 2 hrs by ELISA; assay type: functional, organism-based
Mus musculus [21] = test: Antiinflammatory activity in specific pathogen free BALB/c mouse assessed as inhibition of LPS-induced IL12p40 secretion in serum at 1 mg/kg, po administered as single dose pretreated for 1.5 hrs followed by LPS stimulation and measured after 2 hrs by ELISA; assay type: functional, organism-based
Mus musculus [22] = test: Antiinflammatory activity in specific pathogen free BALB/c mouse assessed as inhibition of LPS-induced TNFalpha secretion in spleen at 1 mg/kg, po administered as single dose pretreated for 1.5 hrs followed by LPS stimulation and measured after 2 hrs by ELISA; assay type: functional, organism-based
Mus musculus [23] = test: Antiinflammatory activity in specific pathogen free BALB/c mouse assessed as inhibition of LPS-induced IL6 secretion in spleen at 1 mg/kg, po administered as single dose pretreated for 1.5 hrs followed by LPS stimulation and measured after 2 hrs by ELISA; assay type: functional, organism-based
Mus musculus [24] = test: Antiinflammatory activity in specific pathogen free BALB/c mouse assessed as inhibition of LPS-induced IL12p40 secretion in spleen at 1 mg/kg, po administered as single dose pretreated for 1.5 hrs followed by LPS stimulation and measured after 2 hrs by ELISA; assay type: functional, organism-based
Mus musculus [25] = test: Protection against imiquimod-induced skin inflammation in BALB/c mouse psoriasis model assessed as decrease in lesion thickness at 25 mg/kg, po administered once daily for 7 days; assay type: functional, organism-based
Mus musculus [26] = test: Protection against imiquimod-induced skin inflammation in BALB/c mouse psoriasis model assessed as decrease in skin scaling at 25 mg/kg, po administered once daily for 7 days; assay type: functional, organism-based
Mus musculus [27] = test: Protection against imiquimod-induced skin inflammation in BALB/c mouse psoriasis model assessed as decrease in skin erythema at 25 mg/kg, po administered once daily for 7 days; assay type: functional, organism-based
Mus musculus [28] = test: Protection against imiquimod-induced skin inflammation in BALB/c mouse psoriasis model assessed as decrease in cumulative psoriasis score at 25 mg/kg, po administered once daily for 7 days; assay type: functional, organism-based
Mus musculus [29] = test: Protection against imiquimod-induced skin inflammation in BALB/c mouse psoriasis model assessed as decrease in lesion thickness at 62.5 mg administered topically as cream formulation once daily for 7 days; assay type: functional, organism-based
Mus musculus [30] = test: Protection against imiquimod-induced skin inflammation in BALB/c mouse psoriasis model assessed as decrease in skin scaling at 62.5 mg administered topically as cream formulation once daily for 7 days; assay type: functional, organism-based
Mus musculus [31] = test: Protection against imiquimod-induced skin inflammation in BALB/c mouse psoriasis model assessed as decrease in skin erythema at 62.5 mg administered topically as cream formulation once daily for 7 days; assay type: functional, organism-based
[32] = biological target: Phosphodiesterase 4 (Homo sapiens) (UniProt P27815+Q08499+Q07343+Q08493); test: Inhibition of PDE4 in human PBMC assessed as reduction in LPS-stimulated TNFalpha production at 10 uM preincubated for 1 hr followed by LPS stimulation and measured after 18 to 20 hrs by ELISA relative to control; assay type: protein assay
[33] = biological target: 3',5'-cyclic-AMP phosphodiesterase 4D (Homo sapiens) (UniProt Q08499); test: Inhibition of recombinant human PDE4D catalytic domain at 10 uM using [3H]cAMP as substrate measured after 30 mins by scintillation proximity assay relative to control

Chain of 3',5'-cyclic-AMP phosphodiesterase 4D (Homo sapiens) (Q08499 whole entry, the tested form may be a part): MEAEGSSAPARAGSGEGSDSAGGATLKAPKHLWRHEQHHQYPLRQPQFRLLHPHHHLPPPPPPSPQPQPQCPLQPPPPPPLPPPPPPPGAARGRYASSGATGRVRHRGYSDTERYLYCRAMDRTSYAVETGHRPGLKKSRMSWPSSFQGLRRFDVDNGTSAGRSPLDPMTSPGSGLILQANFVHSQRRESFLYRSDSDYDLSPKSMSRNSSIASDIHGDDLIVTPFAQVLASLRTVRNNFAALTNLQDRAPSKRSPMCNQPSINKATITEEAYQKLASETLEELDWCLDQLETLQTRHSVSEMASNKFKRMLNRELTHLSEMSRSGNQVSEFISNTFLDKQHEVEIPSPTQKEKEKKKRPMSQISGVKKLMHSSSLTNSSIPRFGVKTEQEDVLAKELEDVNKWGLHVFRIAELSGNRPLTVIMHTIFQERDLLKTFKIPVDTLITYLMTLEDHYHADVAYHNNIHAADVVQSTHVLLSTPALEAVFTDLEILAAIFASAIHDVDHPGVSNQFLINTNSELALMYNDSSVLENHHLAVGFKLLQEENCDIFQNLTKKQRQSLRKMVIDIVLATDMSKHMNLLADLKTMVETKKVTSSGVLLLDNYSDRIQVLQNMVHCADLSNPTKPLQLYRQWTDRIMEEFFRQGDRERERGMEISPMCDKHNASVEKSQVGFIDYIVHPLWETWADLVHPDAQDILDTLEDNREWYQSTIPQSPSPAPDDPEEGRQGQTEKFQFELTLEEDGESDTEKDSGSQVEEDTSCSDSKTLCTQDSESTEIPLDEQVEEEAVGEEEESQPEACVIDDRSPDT

`COc1cc2c(cc1OC1CCCC1)[C@H](CCc1c[nH]c3cc(C)ccc13)N(C=O)CC2` showed an inhibition [1] of 24%.
With `COc1cc2c(cc1OC)C(CCc1c[nH]c3ccccc13)N(C(=O)C1CCOCC1)CC2` (racemic) the inhibition [1] was 16.4%.
`COc1cc2c(cc1OC)C(CCc1c[nH]c3ccccc13)N(CC(F)(F)F)CC2` (racemic) gave an inhibition [1] of 19.5%.
With `COc1cc2c(cc1OC)[C@H](CCc1c[nH]c3cc(C)ccc13)N(C=O)CC2` the recovery at 95 min [2] was 92.3%, the recovery at 95 min [3] was 96.8% and the Papp A→B at 95 min [4] was 18.4 ×10⁻⁶ cm/s. For the same molecule, the Papp B→A at 95 min [5] was 19.9 ×10⁻⁶ cm/s, the AUC(0-t) [6] was 6210 ng·h/mL and the AUC(0-inf) [7] was 6280 ng·h/mL. The MRT [8] was 55.2 min, the half-life [9] was 36 min and the clearance [10] was 28.3 mL/min/kg. It also gave a Vd [11] of 1.56 L/kg, a Tmax [12] of 79.8 min and a Cmax [13] of 2450 ng/mL. The AUC(0-t) [14] was 8390 ng·h/mL, the AUC(0-inf) [15] was 8460 ng·h/mL and the MRT [16] was 150 min. For the same molecule, the half-life [17] was 56.4 min, the Activity (Mus musculus [18]) was “Active” and the bioavailability [19] was 68.3%. For the same molecule, the Activity (Mus musculus [20]) was “Active”, the Activity (Mus musculus [21]) was “Active” and the Activity (Mus musculus [22]) was “Active”. The Activity (Mus musculus [23]) was “Active”, the Activity (Mus musculus [24]) was “Active” and the Activity (Mus musculus [25]) was “Active”. The Activity (Mus musculus [26]) was “Active”, the Activity (Mus musculus [27]) was “Active” and the Activity (Mus musculus [28]) was “Active”. The Activity (Mus musculus [29]) was “Active”, the Activity (Mus musculus [30]) was “Active” and the Activity (Mus musculus [31]) was “Active”.
For `COc1cc2c(cc1OC)C(CCc1c[nH]c3ccccc13)N(C(=O)c1ccncc1)CC2` (racemic), the inhibition [1] was 30.7%.
In the case of `COCCN1CCc2cc(OC)c(OC)cc2C1CCc1c[nH]c2ccccc12` (racemic), the inhibition [1] is reported as 19.2% and the inhibition [32] is reported as 25.7%.
`COc1cc2c(cc1OC)C(CCc1c[nH]c3ccccc13)N(CC1CCOCC1)CC2` (racemic) gave an inhibition [33] of 34.6% and an inhibition [32] of 36.7%.
Work on `CCOc1cc([C@@H](CS(C)(=O)=O)N2C(=O)c3cccc(NC(C)=O)c3C2=O)ccc1OC` yielded a recovery at 95 min [2] of 96.7%, a recovery at 95 min [3] of 92.1% and a Papp A→B at 95 min [4] of 14.9 ×10⁻⁶ cm/s. The Papp B→A at 95 min [5] was 29 ×10⁻⁶ cm/s, the Activity (Mus musculus [25]) was “Active” and the Activity (Mus musculus [26]) was “Active”. For the same molecule, the Activity (Mus musculus [27]) was “Active” and the Activity (Mus musculus [28]) was “Active”.
In the case of `COC(=O)CN1CCc2cc(OC)c(OC)cc2C1CCc1c[nH]c2ccccc12` (racemic), the inhibition [1] is reported as 39.1%.
